Measured values taken from publication PMC5460201, “Bacterial protease uses distinct thermodynamic signatures for substrate recognition” (Scientific Reports, 2017).
Peptide text beside a SMILES is read from it.

Key:
[1] = biological target: T1, PeDPP11 (PeDPP11_22-717 S652A) (Porphyromonas endodontalis, UniProt F8WQK8, S652A); assay: Isothermal titration calorimetry (ITC) of peptide binding to PeDPP11
T1 construct: genes encoding for C-terminal 6xHis-tagged PeDPP11_22-717 S652A and PgDPP11_22-720 S655A in the pET-22b(+) vector; 6xHis (C); made in house; host or cells: E. coli BL21(DE3)pLysS
Procedure: All experiments were carried out in 10 mM Hepes-NaOH pH 7.4, 100 mM NaCl. Both the enzymes and the peptides were dissolved in the same buffer. The bindings were analysed with a MicroCal^TM iTC200 microcalorimeter (GE Healthcare, Life Sciences) equilibrated at the respective temperature. […] Every injection was carried out over a period of 4 s with a spacing of 110 s between the injections. […] These corrected values were plotted against the ratio peptide vs. protein concentration in the cell to generate the binding isotherm. Nonlinear least-squares fitting using Origin version 7.0 (Microcal) was used to obtain the association constants (K a), heats of binding (ΔH) and stoichiometries. […] The reported values are averages of at least two independent measurements.

[2] = system: cAMP-dependent protein kinase A (PKA-C); conditions: NMR and molecular dynamics; ref [40]; cited from earlier work
Source text: Due to experimental challenges, the role of conformational entropy in molecular recognition by proteins has begun to be elucidated only recently, mainly by nuclear magnetic resonance (NMR) relaxation methods. Using NMR techniques and molecular dynamics simulations, Veglia and colleagues observed in cAMP-dependent protein kinase A (PKA-C) a similar binding mode to that of DPP11. […] Conversely, binding of the inhibitor PKI5-24 (protein ki ...

[3] = biological target: Porphyromonas endodontalis dipeptidyl peptidase 11, PeDPP11_(22-717) S652A (Porphyromonas endodontalis) (UniProt F8WQK8); assay: ITC; peptide injected into PeDPP11 in the cell; 10 mM Hepes-NaOH pH 7.4, 100 mM NaCl; 25 °C; one-site binding model
[4] = biological target: the molecule itself; assay: SEC-MALS

Molecule `CC(C)C[C@H](N)C(=O)N[C@@H](CC(=O)O)C(=O)N[C@H](C(=O)N[C@@H](Cc1c[nH]c2ccccc12)C(=O)O)C(C)C` [LDVW, Leu-Asp-Val-Trp] (H-LDVW-OH) has a Kd ([1]; 15 °C (288 K), 10 mM Hepes-NaOH pH 7.4, 100 mM NaCl, averages of at least two independent measurements) of 9000 ± 700 nM.

For `CC(C)C[C@H](N)C(=O)N[C@@H](CC(=O)O)C(=O)O` [LD] (H-Leu-Asp-OH), the Kd ([1]; 10 °C (283 K), 10 mM Hepes-NaOH pH 7.4, 100 mM NaCl, 1.28 mM LD to 120 μM PeDPP11, averages of at least two independent measurements) was 500 ± 100 nM and the Kd ([1]; 20 °C (293 K), 10 mM Hepes-NaOH pH 7.4, 100 mM NaCl, averages of at least two independent measurements) was 1000 ± 300 nM.

With Arg-Asp [RD] the ΔH bind ([1]; 25 °C, 10 mM Hepes-NaOH pH 7.4, 100 mM NaCl, 600 μM LDVW to 60 μM, 810 μM LD to 75 μM, 1 mM LDL to 75 μM, 1.0 mM RD to 80 μM PeDPP11, averages of at least two independent measurements) was -3.7 kcal/mol, the “change in entropy on binding” value ([1]; 25 °C, due to water displacement caused by peptide binding and concomitant domain motion) was “favourable change in entropy” and the “thermodynamic signature of binding” value ([1]; 25 °C, pH 7.4) was “enthalpy-driven process”.

In the case of PKI5-24, the “effect on PKA-C protein dynamics” value [2] is listed as “stabilizes the protein, quenching the enzyme dynamics” and the “thermodynamic signature of binding to PKA-C” value [2] is listed as “enthalpically driven”.

For “PLN1-20: substrate PLN1-20 (phospholamban) of PKA-C (MEKVQYLTRSAIRRASTIEM; UniProt P26678 1-20, looked up, fragment)”, the “effect on PKA-C protein dynamics” value [2] is listed as “increased conformational dynamics” and the “thermodynamic signature of binding to PKA-C” value [2] is listed as “entropically driven”.

With dipeptide Arg-Asp the dH [3] was -3.7 kcal/mol.

dipeptide LD gave a dH [3] of -5.26 kcal/mol.

For substrate peptide LDL, the dH [3] was 4.06 kcal/mol.

Work on substrate peptide Leu-Asp-Val-Trp yielded a dH [3] of 5.69 kcal/mol.

B1: Porphyromonas endodontalis dipeptidyl peptidase 11, PeDPP11_(22-717) S652A (enzyme)
chain: DGGMWLMQQINGQVARMKSLGMQLEAADIYNPNGSSLKDAVVMFDGGCTGVLVSNQGLLLTNHHCGYDQIQKHSSVQHNYLKDGFWSYSLAEELVNPGLEVEIVDEITDVTAAVKKELERIKKPSGLEFLSPRYLSSLAPEIVGKKAASRPGYRYEIKAFYGGNRYYMFTKKVFRDVRLVAAPPSSIGKFGSDTDNWAWPRHTGDFSIFRLYADKNGNPAEYSKDNVPYRPKRWVKVNAQGVKEGDFALIMGYPGTTYKFFTADEVTEWSEIDNNIRIEMRGILQDVMLREMLADPKINIMYAAKYASSQNGYKRAQGANWAIRRRSLREIKLAQQQEVLAWAKQKGIATTEEAVRAISKAIEGRQDLRMRQRYLLEGILMGIEMSNAPAADSDIADHWDDPARREAGLQSIRKQFEAFFNKDYSPEVEKDQLAIALLTRYAERIPAEKQPISIREGIAEYGSAKAYVEMIFDKSIYASRERFEEFMKNPDRDRLLRDPMSRFAASVAYEHQKLAKEVAAFDAPLAAAQRSYVASVLDMKGQPNLAPDANLTLRFTYGEIKGYQPRDVVTYGAKSTLEGVMEKEDPNNWEYVVDPKLKALYEAKNYGRYANSDGSMPVNFCATTHTTGGNAGSPVMNARGELIGLNFDRNWEGVGGDIEYLPNYQRSIILDIRYLLFIIDKFAGCQRLIDEIQPQF
notes: also called PeDPP11_(altconf); source: E. coli BL21(DE3)pLysS, purified (HisTrap, SEC)
In the case of B1, the “stoichiometry N” value [4] is reported as 2.
